Legend:
[1] = Pichia pastoris GS115 expression culture supernatant (methanol induction), purified protein; conditions: 28° C., up to 72 hours
[2] = Pichia pastoris GS115 expression culture supernatant (BMMY medium, methanol induction), purified protein; conditions: 28° C., up to 72 hours

| cleaved bond [2] | Sequence | not cleaved [1] |
| --- | --- | --- |
|  | AIAEPAMIAECKTRTEVFEISRRLIDPTNANFLVWPPCVEVQRCSGCCNNRNVQCRPTQVQLRPVQVRKIEIVRKKPIFKKATVTLEDHLACKCEAVAAARPVA | SDS-PAGE result showed that PDGF-M2 is a single band |
|  | TIAEPAMIAECKTRTEVFEISRRLIDPTNANFLVWPPCVEVQRCSGCCNNRNVQCRPTQVQLRPVQVRKIEIVRKKPIFKKATVTLEDHLACKCEAVAAARPVA | only single band could be detected after the two mutants were reduced (WB) |
| Arg32-Thr33 | TIAEPAMIAECKTRTEVFEISRRLIDRTNANFLVWPPCVEVQRCSGCCNNRNVQCRPTQVQLRPVQVRKIEIVRKKPIFKKATVTLEDHLACKCETVAAARPVT |  |

From patent US10450358 (dated 2019)
